Measurements reported in patent US11998610B2, “Conjugates and methods of using the same” (Flagship Pioneering Innovations V, Inc., priority 2018, dated 2024).
Non-standard residues stand in square brackets, D forms with d. Residues, ends and D or L forms follow the SMILES beside them. *: point of attachment. Myristoyl = CCCCCCCCCCCCCC(=O)*; Octanoyl = CCCCCCCC(=O)*

What was measured:
WT ClbP = assay: Assay with purified ClbP protein (LCMS); format: biochemical, E. coli; conditions: 20 μM WT ClbP, room temperature, 24 h
Procedure: This example is representative of the method described in Example 91 the soluble peptidase domain (amino acids 38 to 375) of ClbP or the catalytically inert mutant S95A was cloned into pET28a using previously defined boundaries as a starting point (Brotherton, J. Am. Chem. Soc., 135:3359-3362, 2013).
WT ClbP or S95A ClbP was isolated as an N-terminally tagged HiS6-SUMO1-fusion protein from […] using E. coli BL21(DE3)RIPL to express the protein. The cells were lysed in 30 mM Tris pH 8.0, 300 mM NaCl, 10% (v/v) glycerol, benzonase (Sigma-Millipore), lysozyme, B-per (ThermoFisher), and Y-per (ThermoFisher). The lysate was clarified via centrifugation (13,000 g, 20 min), and the supernatant was incubated with HiBond Ni-NTA agarose (5 mL). The resin was subsequently washed with wash buffer (30 mM Tris pH 7.5, 250 mM NaCl, 10 mM imidazole, 3% (v/v) glycerol, and 2 mM TCEP). The resin was incubated at 30° C. for 1 h with 1.4 mg ULP1 protease. The resin was then washed with an additional fraction of wash buffer. Centrifuge filtration was used to concentrate the protein, and the concentrated protein was subsequently applied to a 16/600 Superdex 200 size exclusion column with an isocratic elution of 25 mM HEPES, 25 mM Tris pH 7.4, 325 mM NaCl, 10 mM KCl and 3% (v/v) glycerol at a flow rate of […]. The fractions containing the protein were determined by SDS-PAGE, combined, and concentrated by centrifuge filtration. 3 mM TCEP was added to the concentrated protein, which was then aliquoted, flash frozen in liquid N2, and stored at −80° C.
This example is representative of the method described in Example D, ClbP was incubated with test compounds in an in vitro assay. In a typical assay, 0, 1, or 20 μM purified WT or S95A ClbP was incubated with 100 or 500 μM compound in reaction buffer (50 mM Tris-HCl pH 7.5, 37.5 mM NaCl) at room temperature for 24 h. The total volume of this reaction was 150 μL.
After 24 h, 2 volumes of acetonitrile (300 μL) were added to the reaction to quench the solution.
The reaction was centrifuged (4,000 g, 15 min), and then the supernatant was analyzed by LCMS. 5 μL of the supernatant was injected onto an Acquity UPLC BEH C18 1.7 μm 2.1×100 column. Buffer A was 0.1% (v/v) formic acid in water and buffer B was 0.1% (v/v) formic acid in acetonitrile. The flow rate was 0.5 mL/min. The initial % B was 10, which was held for 30 s then ramped up to 90% B over 3 min, held at 90% B for 1 min, ramped down to 10% B over 15 s, and then held at 10% B for 15 s. The UV-Vis spectrum from 210-400 nm was monitored with 3.6 nm resolution. Positive and negative mode ESI were monitored from 100-1000 m/z with a 20 V cone voltage at 5 Hz sampling frequency in centroid collection.
The relative starting material remaining in the WT ClbP reaction was determined by LCMS and then compared to the residual starting material in the no-enzyme and catalytically inert enzyme (S95A ClbP) reactions. In an ideal case, the amount of residual starting material in the WT ClbP reaction was <25% of the amount in the S95A ClbP and no-enzyme conditions. In an acceptable case, the amount of residual starting material in the WT ClbP reaction was 25-75% of the amount in the S95A ClbP and no-enzyme conditions. In a non-preferred case, the amount of residual starting material in the WT ClbP reaction was >75% of the amount in the S95A ClbP and no-enzyme conditions.
Formation of the anticipated product was likewise quantified by LCMS analysis and confirmed by coelution with an external product standard. In an ideal case, the amount of product formed in the WT ClbP reaction corresponded to >75% of the theoretical maximum. In an acceptable case, the amount of product formed in the WT ClbP reaction corresponded to 25-75% of the theoretical maximum. In a non-preferred case, the amount of product formed in the WT ClbP reaction corresponded to <25% of the theoretical maximum.

[1] = Stability of conjugates in Simulated Gastric Fluid (SGF); format: in vitro ADME; conditions: simulated gastric fluid pH 1.6 with pepsin, 1 μM, 37° C.
Summary of the method: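 Compounds at 1 μM (from 1 mM DMSO stock) were incubated at 37°C in simulated gastric fluid, NaCl pH 1.6 with FaSSIF powder and 0.1 mg/mL pepsin. Aliquots taken at T0 and regular intervals were quenched with an equal volume of acetonitrile and analysed by LC/MS for degradation rate.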

Compound | Status (compound remaining in WT ClbP reaction relative to no-enzyme control) (WT ClbP; 500 μM compound) | Assay 1 (SGF) (% Remaining @ 1 hours) [1] | Status (compound remaining in WT ClbP reaction relative to no-enzyme control) (WT ClbP; 100 μM compound)
CCCCCCCC(=O)N[C@H](CCCNC(=N)N)C(=O)N[C@@H](C)C(=O)OC [Example 11, Methyl octanoyl-D-arginyl-L-alaninate] (Octanoyl-[dR]-Ala-OMe) | − (>75% compound remaining in the 20 μM WT ClbP reaction relative to the no-enzyme control) | C (>75% of the tested compound remaining) | –
CCCCCCCC(=O)N[C@H](CCC(=O)O)C(=O)N[C@@H](C)C(=O)OC [Example 9, (R)-5-(((S)-1-methoxy-1-oxopropan-2-yl)amino)-4-octanamido-5-oxopentanoic acid] (Octanoyl-[dE]-Ala-OMe) | – | C (>75% of the tested compound remaining) | − (>75% compound remaining in the 20 μM WT ClbP reaction relative to the no-enzyme control)
CCCCCCCC(=O)N[C@H](CC(N)=O)C(=O)NCCN(C)C(=O)Oc1ccc2c(C)cc(=O)oc2c1 [Example 70, 4-methyl-2-oxo-2H-chromen-7-yl (R)-(2-(4-amino-2-octanamido-4-oxobutanamido)ethyl)(methyl)carbamate] | – | C (>75% of the tested compound remaining) | –
CCCCCCCCCCCCCC(=O)N[C@H](CC(N)=O)C(=O)N[C@@H](C)CCC(=O)OC [Example 21, Methyl (S)-4-((R)-4-amino-4-oxo-2-tetradecanamidobutanamido)pentanoate] | – | C (>75% of the tested compound remaining) | + (between 25-75% compound remaining in the 20 μM WT ClbP reaction relative to the no-enzyme control)
CCCCCCCC(=O)N[C@H](CC(N)=O)C(=O)N[C@@H](C)C(=O)OC [Example 2, Methyl octanoyl-D-asparaginyl-L-alaninate] (Octanoyl-[dN]-Ala-OMe) | – | C (>75% of the tested compound remaining) | ++ (<25% compound remaining in the 20 μM WT ClbP reaction relative to the control)
COC(=O)[C@H](C)NC(=O)[C@@H](CC(N)=O)NC(=O)[C@@H](C)c1ccc2cc(OC)ccc2c1 [Example 18, Methyl ((S)-2-(6-methoxynaphthalen-2-yl)propanoyl)-D-asparaginyl-L-alaninate] | – | C (>75% of the tested compound remaining) | ++ (<25% compound remaining in the 20 μM WT ClbP reaction relative to the control)
CCCCCCCCCCCCCC(=O)N[C@H](CC(N)=O)C(=O)N[C@@H](C)C(=O)OC [Example 1, Methyl tetradecanoyl-D-asparaginyl-L-alaninate] (Myristoyl-[dN]-Ala-OMe) | − (>75% compound remaining in the 20 μM WT ClbP reaction relative to the no-enzyme control) | C (>75% of the tested compound remaining) | –
CCCCCCCCCCCCCC(=O)N[C@H](CC(N)=O)C(=O)Nc1ccc(COC)cc1 [Example 22, (R)—N1-(4-(methoxymethyl)phenyl)-2-tetradecanamidosuccinamide] | – | C (>75% of the tested compound remaining) | + (between 25-75% compound remaining in the 20 μM WT ClbP reaction relative to the no-enzyme control)
CCCCCCCC(=O)N[C@H](CC(N)=O)C(=O)N[C@H](C(=O)OC)C(C)C [Example 6, Methyl octanoyl-D-asparaginyl-L-valinate] (Octanoyl-[dN]-Val-OMe) | – | C (>75% of the tested compound remaining) | ++ (<25% compound remaining in the 20 μM WT ClbP reaction relative to the control)
CCCCCCCC(=O)N[C@@H](CC(N)=O)C(=O)N[C@@H](C)C(=O)OC [Example 4, Methyl octanoyl-L-asparaginyl-L-alaninate] (Octanoyl-Asn-Ala-OMe) | − (>75% compound remaining in the 20 μM WT ClbP reaction relative to the no-enzyme control) | C (>75% of the tested compound remaining) | –
CCCCCCCCCCCCCC(=O)N[C@H](CC(N)=O)C(=O)NCCCC(=O)OC [Example 20, Methyl (R)-4-(4-amino-4-oxo-2-tetradecanamidobutanamido)butanoate] | – | C (>75% of the tested compound remaining) | − (>75% compound remaining in the 20 μM WT ClbP reaction relative to the no-enzyme control)
CCCCCCCCCCCCCC(=O)N[C@H](CC(N)=O)C(=O)N[C@@H](C)CCC(=O)O[C@]1(CC)C(=O)OCc2c1cc1n(c2=O)Cc2c-1nc1ccc(O)cc1c2CC [Example 35, (S)-4,11-diethyl-9-hydroxy-3,14-dioxo-3,4,12,14-tetrahydro-1H-pyrano[3′,4′:6,7]indolizino[1,2-b]quinolin-4-yl (S)-4-((R)-4-amino-4-oxo-2-tetradecanamidobutanamido)pentanoate] | – | C (>75% of the tested compound remaining) | –
CCCCCCCC(=O)N[C@H](CC(N)=O)C(=O)N[C@H](C)C(=O)OC [Example 5, Methyl octanoyl-D-asparaginyl-D-alaninate] (Octanoyl-[dN]-[dA]-OMe) | – | C (>75% of the tested compound remaining) | ++ (<25% compound remaining in the 20 μM WT ClbP reaction relative to the control)
CCCCCCCC(=O)N[C@H](CC(N)=O)C(=O)N[C@@H](CC(C)C)C(=O)OC [Example 7, Methyl octanoyl-D-asparaginyl-L-leucinate] (Octanoyl-[dN]-Leu-OMe) | – | C (>75% of the tested compound remaining) | ++ (<25% compound remaining in the 20 μM WT ClbP reaction relative to the control)
CCCCCCCC(=O)N[C@H](CCC(N)=O)C(=O)N[C@@H](C)C(=O)OC [Example 10, Methyl octanoyl-D-glutaminyl-L-alaninate] (Octanoyl-[dQ]-Ala-OMe) | − (>75% compound remaining in the 20 μM WT ClbP reaction relative to the no-enzyme control) | C (>75% of the tested compound remaining) | –
